This note sets out measurements from patent US20230399312A1, “SUBSTITUTED PYRIMIDINES AND METHODS OF USE” (THERAVANCE BIOPHARMA R&D IP, LLC, priority 2020, published 2023).

Where only a bound is given, the exact number is not on record here.

Experiment [1] deals with TGF-β-stimulated SMAD3 phosphorylation in BEAS-2B cells. Put plainly: Cellular ALK5 potency assay, inhibition of TGF-β stimulated pSMAD3 formation in BEAS-2B cells. Type of experiment: cell-based. The note with it: Homo sapiens, pSMAD3, TGF-β 10 ng/mL, read-out: BEAS2B pIC50 (converted). A digest of the protocol: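 Human lung epithelial BEAS-2B cells were pre-treated with compound for 1 h at 37 °C, then stimulated with TGF-β (final 10 ng/mL) for 30 min before lysis. pSMAD3 was quantified by AlphaLISA and pIC50 derived from dose-dependent signal change versus TGF-β-stimulated untreated cells.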

The target of experiment [2] is T1, recombinant human ALK5 (TGF-βR1) protein (Homo sapiens, UniProt P36897).
T1 construct: purchased Life Technologies PR9075A
T1 sequence (P36897 34-503): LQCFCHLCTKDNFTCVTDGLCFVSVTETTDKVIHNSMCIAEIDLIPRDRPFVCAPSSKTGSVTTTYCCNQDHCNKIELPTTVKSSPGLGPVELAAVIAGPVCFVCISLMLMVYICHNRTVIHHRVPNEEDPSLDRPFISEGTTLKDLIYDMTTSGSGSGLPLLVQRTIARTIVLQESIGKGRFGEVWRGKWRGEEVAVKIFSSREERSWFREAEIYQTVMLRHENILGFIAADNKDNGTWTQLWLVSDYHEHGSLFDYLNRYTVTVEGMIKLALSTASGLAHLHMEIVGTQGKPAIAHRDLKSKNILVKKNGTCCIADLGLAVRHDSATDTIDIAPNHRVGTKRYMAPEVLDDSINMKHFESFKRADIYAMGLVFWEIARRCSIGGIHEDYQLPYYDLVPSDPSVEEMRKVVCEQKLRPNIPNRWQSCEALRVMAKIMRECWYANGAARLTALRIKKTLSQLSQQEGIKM
As to the kind of experiment: Biochemical ALK5 (TGF-βR1) assay to measure pKi (LANCE Ultra ULight kinase assay). The following applies: apparent pKi, converted from pIC50 by Cheng-Prusoff. A digest of the protocol: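 Read-out was LANCE Ultra TR-FRET with a europium anti-phospho-Topo IIα Thr1342 antibody after EDTA quench. Kinase reaction ran 60 min at 37 °C with ATP added from a 125 μM 5× stock, after 60 min compound–enzyme equilibration at room temperature. Values are pKi from Cheng-Prusoff conversion of fitted pIC50.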
In general terms: Time-resolved FRET reads energy transfer from a long-lived donor to a nearby acceptor.

Turning to `Cc1cccc(-c2nccc(Nc3ccnc(Nc4nc(CN(C)C5CNC5)cs4)n3)n2)n1` [Compound 467, N2-[4-[[azetidin-3-yl(methyl)amino]methyl]thiazol-2-yl]-N4-[2-(6-methyl-2-pyridyl)pyrimidin-4-yl]pyrimidine-2,4-diamine], the IC50 in experiment [1] was 25.1 to 158 nM. Further, the Ki in experiment [2] is 0.398 to 3.16 nM.
The like results for `Cc1cccc(-c2nccc(Nc3ccnc(Nc4ccc(-c5c(C)noc5C)cc4)n3)n2)n1` [Compound 469, N2-[4-(3,5-dimethylisoxazol-4-yl)phenyl]-N4-[2-(6-methyl-2-pyridyl)pyrimidin-4-yl]pyrimidine-2,4-diamine] were, in that order, 25.1 to 158 nM and 0.398 to 3.16 nM.
As for `Cc1cccc(-c2nccc(Nc3ccnc(Nc4ccc(CN5[C@H](C)CNC[C@@H]5C)cc4)n3)n2)n1` [Compound 470, N2-[4-[[(2R,6S)-2,6-dimethylpiperazin-1-yl]methyl]phenyl]-N4-[2-(6-methyl-2-pyridyl)pyrimidin-4-yl]pyrimidine-2,4-diamine], in experiment [1], the IC50 was 25.1 to 158 nM. For the same molecule, the Ki in experiment [2] is 0.0398 to 0.316 nM.
As to `Cc1cccc(-c2nccc(Nc3ccnc(Nc4ccc(N5CCC(CNCc6ccccc6)CC5)cc4)n3)n2)n1` [Compound 471, N2-[4-[4-[(benzylamino)methyl]-1-piperidyl]phenyl]-N4-[2-(6-methyl-2-pyridyl)pyrimidin-4-yl]pyrimidine-2,4-diamine], the IC50 in experiment [1] is 200 to 1260 nM. Also, the Ki in experiment [2] is 0.398 to 3.16 nM.
On the same counts, the results for `Cc1cccc(-c2nccc(Nc3ccnc(Nc4ccc(N5CCC(C(=O)OC6CCN(C)C6)CC5)cc4)n3)n2)n1` (stereo not drawn) [Compound 472, (1-methylpyrrolidin-3-yl) 1-[4-[[4-[[2-(6-methyl-2-pyridyl)pyrimidin-4-yl]amino]pyrimidin-2-yl]amino]phenyl]piperidine-4-carboxylate] are 25.1 to 158 nM and 0.0398 to 0.316 nM.
On the same counts, the results for `Cc1cccc(-c2nccc(Nc3ccnc(Nc4ccc(N5CCN(C6CNC6)CC5)cc4)n3)n2)n1` [Compound 473, N2-[4-[4-(azetidin-3-yl)piperazin-1-yl]phenyl]-N4-[2-(6-methyl-2-pyridyl)pyrimidin-4-yl]pyrimidine-2,4-diamine] are 200 to 1260 nM and 0.0398 to 0.316 nM.
On the same counts, the results for `Cc1cccc(-c2nccc(Nc3ccnc(Nc4ccc(CN5CCC(CO)CC5)cc4)n3)n2)n1` [Compound 474, [1-[[4-[[4-[[2-(6-methyl-2-pyridyl)pyrimidin-4-yl]amino]pyrimidin-2-yl]amino]phenyl]methyl]-4-piperidyl]methanol] are 25.1 to 158 nM and not above 0.0316 nM.
For the molecule `Cc1cccc(-c2nccc(Nc3ccnc(Nc4ccc(N5CCOCC5)cc4)n3)n2)n1` [Compound 475, N4-(2-(6-methylpyridin-2-yl)pyrimidin-4-yl)-N2-(4-morpholinophenyl)pyrimidine-2,4-diamine], the IC50 in experiment [1] was not above 20 nM. For the same molecule, the Ki in experiment [2] is 0.0398 to 0.316 nM.
The like results for `Cc1cccc(-c2nccc(Nc3ccnc(Nc4ccc(CC5CCNCC5)cc4)n3)n2)n1` [Compound 476, N4-[2-(6-methyl-2-pyridyl)pyrimidin-4-yl]-N2-[4-(4-piperidylmethyl)phenyl] pyrimidine-2,4-diamine] were, in that order, 25.1 to 158 nM and 0.0398 to 0.316 nM.
The like results for `Cc1cccc(-c2nccc(Nc3ccnc(Nc4cccc(NC(=O)NCC5CNC5)c4)n3)n2)n1` [Compound 477, 1-(azetidin-3-ylmethyl)-3-[3-[[4-[[2-(6-methyl-2-pyridyl)pyrimidin-4-yl]amino]pyrimidin-2-yl]amino]phenyl]urea] were, in that order, not above 20 nM and 0.0398 to 0.316 nM.
The like results for `Cc1cccc(-c2nccc(Nc3ccnc(Nc4ccc(N5CCN(CCN)CC5)cc4)n3)n2)n1` [Compound 478, N2-[4-[4-(2-aminoethyl)piperazin-1-yl]phenyl]-N4-[2-(6-methyl-2-pyridyl)pyrimidin-4-yl]pyrimidine-2,4-diamine] were, in that order, 200 to 1260 nM and 0.0398 to 0.316 nM.
As to `Cc1cccc(-c2nccc(Nc3ccnc(Nc4ccc(N5CCCC(C(=O)O[C@@H]6CCNC6)C5)cc4)n3)n2)n1` (stereo partly drawn) [Compound 479, [(3R)-pyrrolidin-3-yl] 1-[4-[[4-[[2-(6-methyl-2-pyridyl)pyrimidin-4-yl]amino]pyrimidin-2-yl]amino]phenyl]piperidine-3-carboxylate], in experiment [1], the IC50 is 25.1 to 158 nM. For the same molecule, the Ki in experiment [2] is 0.0398 to 0.316 nM.
On the same counts, the results for `Cc1cccc(-c2nccc(Nc3ccnc(Nc4ccc(CN5CCNCC5(C)C)cc4)n3)n2)n1` [Compound 480, N2-[4-[(2,2-dimethylpiperazin-1-yl)methyl]phenyl]-N4-[2-(6-methyl-2-pyridyl)pyrimidin-4-yl]pyrimidine-2,4-diamine] are 25.1 to 158 nM and 0.0398 to 0.316 nM.
`COC(=O)C1CN(Cc2ccc(Nc3nccc(Nc4ccnc(-c5cccc(C)n5)n4)n3)cc2)CCN1C(C)C` (stereo not drawn) [Compound 481, methyl 1-isopropyl-4-[[4-[[4-[[2-(6-methyl-2-pyridyl)pyrimidin-4-yl]amino]pyrimidin-2-yl]amino]phenyl]methyl] piperazine-2-carboxylate]: the IC50 in experiment [1] was 25.1 to 158 nM. Also, the Ki in experiment [2] was 0.398 to 3.16 nM.
As to `Cc1cccc(-c2nc(C)cc(Nc3ccnc(Nc4ccc(N5CCNCC5)cc4)n3)n2)n1` [Compound 482, N4-[6-methyl-2-(6-methyl-2-pyridyl)pyrimidin-4-yl]-N2-(4-piperazin-1-ylphenyl)pyrimidine-2,4-diamine], in experiment [1], the IC50 was 25.1 to 158 nM. Moreover, the Ki in experiment [2] was 0.0398 to 0.316 nM.
For `CNCCN1CCN(c2ccc(Nc3nccc(Nc4ccnc(-c5cccc(C)n5)n4)n3)cc2)CC1` [Compound 483, N2-[4-[4-[2-(methylamino)ethyl]piperazin-1-yl]phenyl]-N4-[2-(6-methyl-2-pyridyl)pyrimidin-4-yl]pyrimidine-2,4-diamine], in experiment [1], the IC50 was 200 to 1260 nM. Also, the Ki in experiment [2] is 0.0398 to 0.316 nM.
On the same counts, the results for `Cc1cccc(-c2nccc(Nc3ccnc(Nc4ccc(CN5CCC(C(=O)O)CC5)cc4)n3)n2)n1` [Compound 484, 1-[[4-[[4-[[2-(6-methyl-2-pyridyl)pyrimidin-4-yl]amino]pyrimidin-2-yl]amino]phenyl]methyl] piperidine-4-carboxylic acid] are 200 to 1260 nM and 0.0398 to 0.316 nM.
On the same counts, the results for `Cc1cccc(-c2nccc(Nc3ccnc(Nc4ccc(Cc5ncco5)cc4)n3)n2)n1` [Compound 485, N4-[2-(6-methyl-2-pyridyl)pyrimidin-4-yl]-N2-[4-(oxazol-2-ylmethyl)phenyl]pyrimidine-2,4-diamine] are 25.1 to 158 nM and 0.398 to 3.16 nM.
Take `Cc1cccc(-c2nccc(Nc3ccnc(Nc4ccc(CN5CCC[C@H](C(=O)O[C@@H]6CCN(C)C6)C5)cc4)n3)n2)n1` [Compound 486, [(3R)-1-methylpyrrolidin-3-yl] (3S)-1-[[4-[[4-[[2-(6-methyl-2-pyridyl)pyrimidin-4-yl]amino]pyrimidin-2-yl]amino]phenyl]methyl] piperidine-3-carboxylate]: in experiment [1], the IC50 was 25.1 to 158 nM. In addition, the Ki in experiment [2] is 0.0398 to 0.316 nM.
On to `Cc1cccc(-c2nccc(Nc3ccnc(Nc4ccc(Cl)c(CN5C6CCC5CNC6)c4)n3)n2)n1` [Compound 487, N2-[4-chloro-3-(3,8-diazabicyclo[3.2.1]octan-8-ylmethyl)phenyl]-N4-[2-(6-methyl-2-pyridyl)pyrimidin-4-yl]pyrimidine-2,4-diamine], for which the IC50 in experiment [1] is 25.1 to 158 nM. For the same molecule, in experiment [2], the Ki is 0.0398 to 0.316 nM.
The like results for `Cc1cccc(-c2nccc(Nc3ccnc(Nc4ccc(N5CCN[C@H](C(=O)O)C5)cc4)n3)n2)n1` [Compound 488, (2S)-4-[4-[[4-[[2-(6-methyl-2-pyridyl)pyrimidin-4-yl]amino]pyrimidin-2-yl]amino]phenyl]piperazine-2-carboxylic acid] were, in that order, 200 to 1260 nM and 0.0398 to 0.316 nM.
The like results for `Cc1cccc(-c2nccc(Nc3ccnc(Nc4ccc(CC5CCNC5)cc4)n3)n2)n1` (stereo not drawn) [Compound 489, N4-(2-(6-methylpyridin-2-yl)pyrimidin-4-yl)-N2-(4-(pyrrolidin-3-ylmethyl)phenyl)pyrimidine-2,4-diamine] were, in that order, 25.1 to 158 nM and 0.0398 to 0.316 nM.
On the same counts, the results for `Cc1cccc(-c2nccc(Nc3ccnc(Nc4ccc(NCC5(O)CNC5)cc4)n3)n2)n1` [Compound 490, 3-[[4-[[4-[[2-(6-methyl-2-pyridyl)pyrimidin-4-yl]amino]pyrimidin-2-yl]amino]anilino]methyl] azetidin-3-ol] are 25.1 to 158 nM and 0.0398 to 0.316 nM.
`COC(=O)CC1CN(c2ccc(Nc3nccc(Nc4ccnc(-c5cccc(C)n5)n4)n3)cc2)CCN1` (stereo not drawn) [Compound 491, methyl 2-[4-[4-[[4-[[2-(6-methyl-2-pyridyl)pyrimidin-4-yl]amino]pyrimidin-2-yl]amino]phenyl]piperazin-2-yl]acetate]: the IC50 in experiment [1] was 25.1 to 158 nM. Besides, the Ki in experiment [2] was 0.0398 to 0.316 nM.
